According to publication PMC5762338, “A novel orally available Syk/Src/Jak2 inhibitor, SKLB-850, showed potent anti-tumor activities in B cell lymphoma (BCL) models” (Oncotarget, 2017):

Legend:
[1] = test system: B-cell lymphoma samples from BCL patients; assay: Apoptosis of B-cell lymphoma samples from BCL patients, FCM; assay type: cell-based, Human; settings: BCL patient samples, 24 hours, concentration not given
Text: (§1) The ability of inducing apoptosis of SKLB-850 in tumor tissues was examined by TUNEL. […] We then examined apoptotic tumor cells in B-cell lymphoma samples from BCL patients after SKLB-850 treatment by FCM. As shown in Figure 6C and 6F, SKLB-850 induced cell apoptosis (14.10 ± 4.04%), and R788 had the same effect but relatively weak (7.60 ± 0.52%). To better understand the mechanism of antitumor activities in vivo, Ki67 and CD20 in mouse tumor tissues were detected by immunohischemistry; Ki67 was a marker of proliferation in the diagnosis of tumors and CD20 was highly expressed in B cell lymphomas.
Figure 6 SKLB-850 inhibited tumor growth by inducing apoptosis of tumor tissues from the Ramos model and BCL samples from patients (A and D) TUNEL immunofluorescent staining of tumor tissues from the Ramos model (n-6 mice per group). (B and E) Immunohistochemical staining analyses of Ki67 and CD20 in tumor tissues from the Ramos model. (C and F) Apoptosis of tumor cells from the BCL patients induced by SKLB-850. Tumor tissues from BCL patients were treated with a series of concentrations of SKLB-850 or R788, and stained with AnnexinV-FITC and propidium iodide, then analyzed with a flow cytometer. […]
Human lymph nodes were collected aseptically from B-cell lymphoma patients (n = 4 for both groups, Supplementary Table 1). […] Cell apoptosis was analyzed with a flow cytometer (BD FACS Calibur, BD, USA).

Ramos tumors = assay: In situ TUNEL of tumor tissues from the Ramos model; assay type: in vivo, NOD/SCID mice
Text: as §1
Cell apoptosis in Ramos tumors was determined by a TUNEL assay following the manufacturer’s instructions (Promega). The number of TUNEL-positive cells was quantified by fluorescence microscopy and the apoptotic index in 6 random fields per group was counted.

HBL-1 cells = assay: Cell cycle analysis by FCM; assay type: cell-based, Human; settings: HBL-1, compared with the control, 18 hours
Procedure: FCM was again used to examine the influence of SKLB-850 on the tumor cell cycle.
Figure 2 Cell cycle analysis of Ramos and HBL-1 cells induced by SKLB-850, R788 DMSO or control Tumor cells were treated by vehicle, R788 or indicated concentrations of compounds. After 18 hours, cell were harvested and stained with AnnexinV-FITC and propidium iodide, and then analyzed by FCM. […] (A and C) Cell cycle analysis of Ramos cells. (B and D) Cell cycle analysis of HBL-1 cells. […] Columns, mean; bars, SD.^##P < 0.01, 850 group versus DMSO or blank control group.
Ramos and HBL-1 cells cultured in 6-well plates were treated with DMSO, R788, SKLB-850 or medium. After 18 hours, cells were harvested and washed with PBS, fixed with 70% ethanol for 30 min, stained with 200 μL PI (50 μg/mL PI with 1 mg/mL RNase I, and 0.1% Triton X-100) for 30 min. Cell cycle was analyzed with a flow cytometer (BD FACSCalibur, BD, USA).

SMILES | cell apoptosis [1] [%] | apoptosis in tumor tissues (TUNEL) (Ramos tumors) | percentages of cells in the G2 phase (in words) (HBL-1 cells)
CN1CCN(c2ccc(Nc3ncc(F)c(Nc4ccc(Cl)cc4C(N)=O)n3)cc2)CC1 [SKLB-850, 5-chloro-2-((5-fluoro-2-((4-(4-methylpiperazin-1-yl)phenyl)amino)pyrimidin-4-yl)amino) benzamide] | 14.10 ± 4.04 | 406.00 ± 20.70 % of control | significantly increased
COc1cc(Nc2ncc(F)c(Nc3ccc4c(n3)N(COP(=O)(O)O)C(=O)C(C)(C)O4)n2)cc(OC)c1OC [R788, reference compound] | 7.60 ± 0.52 | 242.20 ± 20.00 % of control | very weak effect
